Measurements taken from the supplement of paper PMC4862054.

Columns and labels:
Assay in all cases: normalised viability (% of control), CellTiter-Blue; higher = more viable cells (about 100 = DMSO control)
Settings in all cases: incubation time: 72 h
HCC1143 = system: HCC1143
How it was run: (§1)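 384-well plates were pre-loaded with compound in 5 µl medium before 20 µl of breast cancer cell suspension was seeded. Following 72 h incubation, 2.5 µl CellTiter-Blue reagent was added for 2 h at 37 °C. Fluorescence was read at 560/590 nm and plates were normalised to vehicle (100) and a positive kill control (0), checked by Z'-factor. Normalised viability is reported at a single listed concentration of the series.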

HCC1599 = system: HCC1599
How it was run: as §1

Hs578T = system: Hs578T
How it was run: as §1

HCC1937 = system: HCC1937
How it was run: as §1

SK-BR-3 = system: SK-BR-3
How it was run: as §1

CAL-120 = system: CAL-120
How it was run: as §1

MDA-MB-468 = system: MDA-MB-468
How it was run: as §1

CAL-148 = system: CAL-148
How it was run: as §1

HDQ-P1 = system: HDQ-P1
How it was run: as §1

BT-549 = system: BT-549
How it was run: as §1

| SMILES | normalised viability (HCC1143; 1 nM) [%] | normalised viability (HCC1143; 100 nM) [%] | normalised viability (HCC1143; 1000 nM) [%] | normalised viability (HCC1599; 1 nM) [%] | normalised viability (HCC1599; 100 nM) [%] | normalised viability (HCC1599; 1000 nM) [%] | normalised viability (Hs578T; 1 nM) [%] | normalised viability (Hs578T; 100 nM) [%] | normalised viability (Hs578T; 1000 nM) [%] | normalised viability (HCC1937; 1 nM) [%] | normalised viability (HCC1937; 100 nM) [%] | normalised viability (HCC1937; 1000 nM) [%] | normalised viability (SK-BR-3; 1 nM) [%] | normalised viability (SK-BR-3; 100 nM) [%] | normalised viability (SK-BR-3; 1000 nM) [%] | normalised viability (CAL-120; 1000 nM) [%] | normalised viability (MDA-MB-468; 1000 nM) [%] | normalised viability (CAL-148; 3 nM) [%] | normalised viability (HDQ-P1; 3 nM) [%] | normalised viability (BT-549; 1000 nM) [%] | also measured |
| --- | --- | --- | --- | --- | --- | --- | --- | --- | --- | --- | --- | --- | --- | --- | --- | --- | --- | --- | --- | --- | --- |
| CO[C@H]1C[C@@H]2CC[C@@H](C)[C@@](O)(O2)C(=O)C(=O)N2CCCC[C@H]2C(=O)O[C@H]([C@H](C)C[C@@H]2CC[C@@H](OC(=O)C(C)(CO)CO)[C@H](OC)C2)CC(=O)[C@H](C)/C=C(\C)[C@@H](O)[C@@H](OC)C(=O)[C@H](C)C[C@H](C)/C=C/C=C/C=C/1C [Temsirolimus] | 75.7 | 66.5 | 61 | 103 | 78.7 | 86.8 | 70.4 | 55.1 | 57.6 | 59.5 | 68.7 | 54.7 | 76.1 | 54 | 49.7 | 42.7 | 62.4 | 45.9 | 78.4 | 53.4 | normalised viability (CAL-120; 1 nM): 70.6%; normalised viability (CAL-120; 100 nM): 46.5%; normalised viability (MDA-MB-468; 1 nM): 74.6%; normalised viability (MDA-MB-468; 100 nM): 68.5%; normalised viability (CAL-148; 0.3 nM): 74.3%; normalised viability (CAL-148; 10 nM): 39.4%; normalised viability (HDQ-P1; 0.3 nM): 106%; normalised viability (HDQ-P1; 10 nM): 82.5%; normalised viability (BT-549; 1 nM): 56.8%; normalised viability (BT-549; 100 nM): 62.9% |
| C[C@]1(c2nc3c(C(N)=O)cccc3[nH]2)CCCN1 [Veliparib] |  |  | 76.4 |  |  | 98.3 |  |  | 99.9 |  |  | 70 |  |  | 93.6 | 77 | 105 | 89.3 | 85.6 | 112 | normalised viability (HCC1143; 10 nM): 66.6%; normalised viability (HCC1143; 10000 nM): 75.3%; normalised viability (HCC1599; 10 nM): 100%; normalised viability (HCC1599; 10000 nM): 100%; normalised viability (Hs578T; 10 nM): 101%; normalised viability (Hs578T; 10000 nM): 100%; normalised viability (HCC1937; 10 nM): 72.2%; normalised viability (HCC1937; 10000 nM): 61.7%; normalised viability (SK-BR-3; 10 nM): 93.8%; normalised viability (SK-BR-3; 10000 nM): 84.6%; normalised viability (CAL-120; 10 nM): 81.7%; normalised viability (CAL-120; 10000 nM): 70.2%; normalised viability (MDA-MB-468; 10 nM): 113%; normalised viability (MDA-MB-468; 10000 nM): 98.9%; normalised viability (CAL-148; 30 nM): 86.4%; normalised viability (CAL-148; 100 nM): 85.6%; normalised viability (HDQ-P1; 30 nM): 93.3%; normalised viability (HDQ-P1; 100 nM): 95.9%; normalised viability (BT-549; 10 nM): 95.3%; normalised viability (BT-549; 10000 nM): 81.7% |
| CC[C@]1(O)C[C@@H]2CN(CCc3c([nH]c4ccccc34)[C@@](C(=O)OC)(c3cc4c(cc3OC)N(C)[C@H]3[C@@](O)(C(=O)OC)[C@H](OC(C)=O)[C@]5(CC)C=CCN6CC[C@]43[C@@H]65)C2)C1 [Vinblastine] | 77.3 | 42.7 | 29.5 | 106 | 56.9 | 45.5 | 70.4 | 14.8 | 13.2 | 46 | 18.7 | 15.6 | 27.6 | 16.5 | 16.4 | 20.1 | 41.8 | 78.8 | 87.3 | 17 | normalised viability (CAL-120; 1 nM): 35.4%; normalised viability (CAL-120; 100 nM): 18.5%; normalised viability (MDA-MB-468; 1 nM): 83.8%; normalised viability (MDA-MB-468; 100 nM): 36.6%; normalised viability (CAL-148; 0.3 nM): 76.8%; normalised viability (CAL-148; 10 nM): 79%; normalised viability (HDQ-P1; 0.3 nM): 92.6%; normalised viability (HDQ-P1; 10 nM): 47.5%; normalised viability (BT-549; 1 nM): 90.7%; normalised viability (BT-549; 100 nM): 19.4% |
| CS(=O)(=O)c1ccc(C(=O)Nc2ccc(Cl)c(-c3ccccn3)c2)c(Cl)c1 [Vismodegib] |  |  | 93.6 |  |  | 97.7 |  |  | 108 |  |  | 91.4 |  |  | 105 | 90.8 | 103 | 79.8 | 100 | 112 | normalised viability (HCC1143; 10 nM): 93.1%; normalised viability (HCC1143; 10000 nM): 92.9%; normalised viability (HCC1599; 10 nM): 112%; normalised viability (HCC1599; 10000 nM): 84.1%; normalised viability (Hs578T; 10 nM): 106%; normalised viability (Hs578T; 10000 nM): 93.3%; normalised viability (HCC1937; 10 nM): 57.2%; normalised viability (HCC1937; 10000 nM): 83.9%; normalised viability (SK-BR-3; 10 nM): 107%; normalised viability (SK-BR-3; 10000 nM): 95.2%; normalised viability (CAL-120; 10 nM): 89.7%; normalised viability (CAL-120; 10000 nM): 85.6%; normalised viability (MDA-MB-468; 10 nM): 104%; normalised viability (MDA-MB-468; 10000 nM): 88.7%; normalised viability (CAL-148; 30 nM): 93.5%; normalised viability (CAL-148; 100 nM): 92.2%; normalised viability (HDQ-P1; 30 nM): 96.5%; normalised viability (HDQ-P1; 100 nM): 88.8%; normalised viability (BT-549; 10 nM): 102%; normalised viability (BT-549; 10000 nM): 79.2% |
